Measured values from patent US9434711B2 (Janssen Pharmaceutica, NV, priority 2007, dated 2016).

Biological target: canine TRPM8 (Canis lupus familiaris, UniProt Q1A7N1)
Assay: In Vitro Canine TRPM8 Functional Assay (Ca2+ fluorescence, icilin activation)
Assay type: cell-based
Details: for inhibition at 0.2 µM / % Inh @ 0.2 (μM): compound at 0.2 μM, canine TRPM8, icilin activation; for inhibition at 0.2 µM: read-out: % Inh @ 0.2; for IC50: HEK293 cells stably expressing canine TRPM8, icilin activation, eight-point dose-response, read-out: IC50
How it was run: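 Cells (HEK293, stable canine TRPM8) are seeded 24 h before assay. They are then dye-loaded with Calcium 3 at 37 °C followed by room temperature. Compound is added and monitored for 5 min, after which icilin (~80% maximal response) is added.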

Chain of canine TRPM8 (Q1A7N1 1-1104): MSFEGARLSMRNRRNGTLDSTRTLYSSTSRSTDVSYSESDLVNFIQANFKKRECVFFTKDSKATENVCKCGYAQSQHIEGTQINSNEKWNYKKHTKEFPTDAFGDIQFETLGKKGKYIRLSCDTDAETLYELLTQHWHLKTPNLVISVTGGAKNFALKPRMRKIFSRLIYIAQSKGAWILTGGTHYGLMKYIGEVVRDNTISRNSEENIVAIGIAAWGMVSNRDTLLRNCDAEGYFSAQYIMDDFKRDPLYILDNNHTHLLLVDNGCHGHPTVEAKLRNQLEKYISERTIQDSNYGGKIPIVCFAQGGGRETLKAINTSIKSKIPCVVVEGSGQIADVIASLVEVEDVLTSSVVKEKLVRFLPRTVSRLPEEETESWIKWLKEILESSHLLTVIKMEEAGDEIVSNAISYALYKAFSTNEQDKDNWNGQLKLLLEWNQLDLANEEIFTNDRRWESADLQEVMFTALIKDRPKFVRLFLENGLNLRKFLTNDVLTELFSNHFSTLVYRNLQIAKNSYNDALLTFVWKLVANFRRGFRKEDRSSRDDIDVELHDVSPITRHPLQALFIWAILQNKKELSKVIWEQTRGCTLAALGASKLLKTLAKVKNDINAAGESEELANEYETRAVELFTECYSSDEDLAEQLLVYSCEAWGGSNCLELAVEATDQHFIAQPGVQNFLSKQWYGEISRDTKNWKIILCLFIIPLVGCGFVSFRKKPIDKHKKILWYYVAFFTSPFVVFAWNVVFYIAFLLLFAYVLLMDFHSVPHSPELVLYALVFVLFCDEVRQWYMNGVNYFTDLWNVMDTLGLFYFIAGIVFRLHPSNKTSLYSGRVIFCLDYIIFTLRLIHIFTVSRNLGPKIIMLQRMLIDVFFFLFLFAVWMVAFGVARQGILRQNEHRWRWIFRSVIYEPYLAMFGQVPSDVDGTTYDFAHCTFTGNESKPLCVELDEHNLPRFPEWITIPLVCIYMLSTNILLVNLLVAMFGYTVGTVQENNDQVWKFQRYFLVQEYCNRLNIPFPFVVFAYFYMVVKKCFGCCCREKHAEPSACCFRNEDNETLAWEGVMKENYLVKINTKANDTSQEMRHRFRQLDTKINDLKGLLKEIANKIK

| SMILES | inhibition at 0.2 µM [%] | % Inh @ 0.2 (μM) [%] | IC50 [nM] |
| --- | --- | --- | --- |
| COC(=O)c1cccc(CN(c2cc3ccccc3s2)S(=O)(=O)c2cccnc2)c1 [Compound 379, N-(Benzo[b]thiophen-2-yl)-N-(3-carbomethoxy-benzyl)-pyridin-3-ylsulfonamide] | 54 | – | – |
| COC(=O)c1ccc(CN(c2cc3ccccc3s2)S(=O)(=O)c2cccnc2)cc1 [Compound 380, N-(Benzo[b]thiophen-2-yl)-N-(4-carbomethoxy-benzyl)-pyridin-3-ylsulfonamide] | 24 | – | – |
| O=S(=O)(c1ccccc1)N(Cc1ccc(F)c(C(F)(F)F)c1)c1sc2ccccc2c1CN1CCCC1 [Compound 381, N-(4-Fluoro-3-trifluoromethyl-benzyl)-N-(3-pyrrolidin-1-yl-methyl-benzo[b]thiophen-2-yl)-benzenesulfonamide] | – | 20 | – |
| CCCCN(c1cc2ccccc2s1)S(C)(=O)=O [Compound 382, N-(Benzo[b]thiophen-2-yl)-N-(butyl)-methanesulfonamide] | 17 | – | – |
| O=S(=O)(c1cccnc1)N(CCCC(F)(F)F)c1cc2ccccc2s1 [Compound 383, N-(Benzo[b]thiophen-2-yl)-N-(4,4,4-trifluoro-butyl)-pyridin-3-ylsulfonamide] | 49 | – | – |
| Cc1c(N(CCCC(F)(F)F)S(=O)(=O)c2ccc3[nH]c(=O)oc3c2)sc2ccccc12 [Compound 384, N-(3-Methyl-benzo[b]thiophen-2-yl)-N-(4,4,4-trifluoro-butyl)-2-oxo-2,3-dihydro-benzooxazol-6-yl-sulfonamide] | 96 | – | 17 |
| CC(=O)c1c(N(CCC(F)(F)F)S(=O)(=O)c2ccc(C(=O)O)cc2)sc2ccccc12 [Compound 385, N-(3-Acetyl-benzo[b]thiophen-2-yl)-N-(3,3,3-trifluoro-propyl)-4-carboxy-benzenesulfonamide] | 54 | – | – |
| CC(=O)c1c(N(Cc2ccc(F)c(C(F)(F)F)c2)S(=O)(=O)c2ccc(Br)cc2)sc2ccccc12 [Compound 386, N-(3-Acetyl-benzo[b]thiophen-2-yl)-4-bromo-N-(4-fluoro-3-trifluoromethyl-benzyl)benzenesulfonamide] | 101 | – | 12.8 |
| CC(=O)c1c(N(Cc2ccc(F)c(C(F)(F)F)c2)S(=O)(=O)c2ccc(C#N)cc2)sc2ccccc12 [Compound 387, N-(3-Acetyl-benzo[b]thiophen-2-yl)-4-cyano-N-(4-fluoro-3-trifluoromethyl-benzyl)-benzenesulfonamide] | 98 | – | 31 |
| CC(C)(O)c1c(N(Cc2ccc(F)c(C(F)(F)F)c2)S(=O)(=O)c2ccc(Br)cc2)sc2ccccc12 [Compound 388] | – | 97 | 19 |
| CC(=O)c1ccc(S(=O)(=O)N(Cc2ccc(F)c(C(F)(F)F)c2)c2sc3ccccc3c2C(C)(C)O)cc1 [Compound 389, 4-Acetyl-N-(4-fluoro-3-trifluoromethylbenzyl)-N-(3-(1-hydroxy-1-methyl-ethyl)-benzo[b]thiophen-2-yl)-benzenesulfonamide] | 97 | – | 10 |
| CCN(c1sc2ccccc2c1Br)S(=O)(=O)c1ccc(C(=O)O)cc1 [Compound 390, N-(3-Bromo-benzo[b]thiophen-2-yl)-N-(ethyl)-4-carboxy-benzenesulfonamide] | 69 | – | – |
| CCCN(c1sc2ccccc2c1Br)S(=O)(=O)c1ccc(C(=O)O)cc1 [Compound 391, N-(3-Bromo-benzo[b]thiophen-2-yl)-N-(propyl)-4-carboxy-benzenesulfonamide] | 93 | – | 47 |
| CCCCCN(c1sc2ccccc2c1Br)S(=O)(=O)c1ccc(C(=O)O)cc1 [Compound 392, N-(3-Bromo-benzo[b]thiophen-2-yl)-N-(pentyl)-4-carboxy-benzenesulfonamide] | 93 | – | 7 |
| CCCCCCN(c1sc2ccccc2c1Br)S(=O)(=O)c1ccc(C(=O)O)cc1 [Compound 393, N-(3-Bromo-benzo[b]thiophen-2-yl)-N-(hexyl)-4-carboxy-benzenesulfonamide] | 95 | – | 5 |
| O=C(O)c1ccc(S(=O)(=O)N(CCCC(F)(F)F)c2sc3ccccc3c2Br)cc1 [Compound 394, N-(3-Bromo-benzo[b]thiophen-2-yl)-N-(4,4,4-trifluoro-butyl)-4-carboxy-benzenesulfonamide] | 101 | – | 9 |
| CC(C)(C)OCCCN(c1sc2ccccc2c1Br)S(=O)(=O)c1ccc(C(=O)O)cc1 [Compound 397, N-(3-Bromo-benzo[b]thiophen-2-yl)-N-(3-tert-butoxypropyl)-4-carboxy-benzenesulfonamide] | 95 | – | 8 |
| Cc1c(N(CC2CC2)S(=O)(=O)c2ccc(C(=O)O)cc2)sc2ccccc12 [Compound 399, N-(3-Methyl-benzo[b]thiophen-2-yl)-N-(cyclopropylmethyl)-4-carboxy-benzenesulfonamide] | 93 | – | 36 |

| SMILES | inhibition at 0.2 µM [%] | % Inh @ 0.2 (μM) [%] | IC50 [nM] |
| --- | --- | --- | --- |
| Cc1c(N(CCOC(C)(C)C)S(=O)(=O)c2ccc(C(=O)O)cc2)sc2ccccc12 [Compound 401, N-(3-Methyl-benzo[b]thiophen-2-yl)-N-(2-tert-butoxy-ethyl)-4-carboxy-benzenesulfonamide] | 91 | – | 5 |
| CCN(c1sc2ccccc2c1C)S(=O)(=O)c1ccc(C(=O)OC)cc1 [Compound 402, N-(3-Methyl-benzo[b]thiophen-2-yl)-N-(ethyl)-4-carbomethoxy-benzenesulfonamide] | 38 | – | – |
| CCN(c1sc2ccccc2c1C)S(=O)(=O)c1ccc(C(=O)O)cc1 [Compound 403, N-(3-Methyl-benzo[b]thiophen-2-yl)-N-(ethyl)-4-carboxy-benzenesulfonamide] | 52 | – | – |
| CCCN(c1sc2ccccc2c1C)S(=O)(=O)c1ccc(C(=O)O)cc1 [Compound 404, N-(3-Methyl-benzo[b]thiophen-2-yl)-N-(propyl)-4-carboxy-benzenesulfonamide] | 96 | – | – |
| COC(=O)c1cccc(CN(c2sc3ccccc3c2Br)S(=O)(=O)c2cccnc2)c1 [Compound 405, N-(3-Bromo-benzo[b]thiophen-2-yl)-N-(3-carbomethoxy-benzyl)-pyridin-3-ylsulfonamide] | 95 | – | 36 |
| COC(=O)c1ccc(CN(c2sc3ccccc3c2Br)S(=O)(=O)c2cccnc2)cc1 [Compound 406, N-(3-Bromo-benzo[b]thiophen-2-yl)-N-(4-carbomethoxy-benzyl)-pyridin-3-ylsulfonamide] | 66 | – | – |
| O=S(=O)(c1cccnc1)N(CCCC(F)(F)F)c1sc2ccccc2c1Br [Compound 407, N-(3-Bromo-benzo[b]thiophen-2-yl)-N-(4,4,4-trifluoro-butyl)-pyridin-3-yl-sulfonamide] | 96 | – | 43 |
| O=S(=O)(c1cccnc1)N(CCCC(F)(F)F)c1sc2ccccc2c1Cl [Compound 408, N-(3-Chloro-benzo[b]thiophen-2-yl)-N-(4,4,4-trifluoro-butyl)-3-pyridin-3-yl-sulfonamide] | – | 78 | 122 |
| Cc1c(N(CCCC(F)(F)F)S(=O)(=O)c2ccc(C(=O)O)cc2)sc2ccccc12 [Compound 410, N-(3-Methyl-benzo[b]thiophen-2-yl)-N-(4,4,4-trifluoro-butyl)-4-carboxy-benzenesulfonamide] | 96 | – | 17 |
| N#Cc1ccc(S(=O)(=O)N(Cc2ccc(F)c(C(F)(F)F)c2)c2cc3ccccc3s2)cc1 [Compound 411, N-(Benzo[b]thiophen-2-yl)-N-(4-fluoro-3-trifluoromethyl-benzyl)-4-cyano-benzenesulfonamide] | 43 | – | – |
| COC(=O)c1ccc(S(=O)(=O)N(CCCC(F)(F)F)c2sc3cc(F)ccc3c2C)cc1 [Compound 412, N-(6-Fluoro-3-methyl-benzo[b]thiophen-2-yl)-N-(4,4,4-trifluoro-butyl)-4-carbomethoxybenzenesulfonamide] | 13 | – | – |
| NC(=O)c1ccc(S(=O)(=O)N(Cc2ccc(F)c(C(F)(F)F)c2)c2cc3ccccc3s2)cc1 [Compound 413, N-(Benzo[b]thiophen-2-yl)-N-(4-fluoro-3-trifluoromethyl-benzyl)-4-carboxamide-benzenesulfonamide] | – | 93 | 46 |
| NC(=O)c1ccc(S(=O)(=O)N(CCCC(F)(F)F)c2cc3ccccc3s2)cc1 [Compound 414, N-(Benzo[b]thiophen-2-yl)-N-(4,4,4-trifluoro-butyl)-4-carboxamide-benzene-sulfonamide] | – | 33 | – |
| COC(=O)c1ccc(S(=O)(=O)N(Cc2ccc(F)c(C(F)(F)F)c2)c2sc3ccccc3c2C(C)(C)O)cc1 [Compound 415, N-(4-Fluoro-3-trifluoromethylbenzyl)-N-(3-(1-hydroxy-1-methyl-ethyl)-benzo[b]thiophen-2-yl)-4-carbomethoxy-benzenesulfonamide] | 92 | – | 5 |
| COC(=O)c1ccc(S(=O)(=O)N(CCCOC(C)(C)C)c2sc3ccccc3c2C)cc1 [Compound 416, N-(3-Methyl-benzo[b]thiophen-2-yl)-N-(3-tert-butoxy-propyl)-4-carbomethoxy-benzenesulfonamide] | 95 | – | 12 |
| CNCc1c(N(Cc2ccc(F)c(C(F)(F)F)c2)S(=O)(=O)c2ccccc2)sc2ccccc12 [Compound 417, N-(4-Fluoro-3-trifluoromethyl-benzyl)-N-(3-methylaminomethyl-benzo[b]thiophen-2-yl)-benzenesulfonamide] | 93 | – | 62 |
| CN(C)Cc1c(N(Cc2ccc(F)c(C(F)(F)F)c2)S(=O)(=O)c2ccccc2)sc2ccccc12 [Compound 418, N-(3-Dimethylaminomethyl-benzo[b]thiophen-2-yl)-N-(4-fluoro-3-trifluoromethyl-benzyl)-benzenesulfonamide] | 90 | – | 69 |
